One experiment addresses T1, mouse RORγ (Mus musculus, UniProt P51450).
T1 construct: mouse, NM_011281.2 and from Ile251 to Lys516; expressed in transfected cells; host or cells: CHO cells (transient co-transfection with pG5-Luc reporter)
T1 sequence (P51450 251-516): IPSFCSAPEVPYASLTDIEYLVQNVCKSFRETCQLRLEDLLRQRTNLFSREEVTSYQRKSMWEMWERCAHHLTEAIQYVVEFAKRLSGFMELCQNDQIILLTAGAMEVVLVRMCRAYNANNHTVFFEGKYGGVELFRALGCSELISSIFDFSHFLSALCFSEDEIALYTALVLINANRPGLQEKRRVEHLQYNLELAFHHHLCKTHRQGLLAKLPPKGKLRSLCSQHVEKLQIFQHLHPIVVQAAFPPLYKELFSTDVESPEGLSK
As to the kind of experiment: Luciferase reporter gene assay of inhibitory effect against RORγ transcriptional activity (GAL4-mRORγ plasmid in CHO cells). Type of experiment: cell-based. As to conditions: read-out: LUC EC50 mRORg. The method in brief:
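Readout is intracellular luciferase after 2-day compound exposure (8 concentrations, 0.1% DMSO) in CHO cells expressing GAL4 fused to mouse RORγ LBD residues Ile251–Lys516 plus pG5-Luc reporter. EC50 fitted from %-of-control; points showing resazurin-detected cytotoxicity dropped.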
(A reporter such as luciferase makes a cellular process visible.)

The next experiment addresses T2, human RORγ (Homo sapiens, UniProt P51449).
T2 construct: human, NM_005060.3 and from Ser253 to Lys518; expressed in transfected cells; host or cells: CHO cells (transient co-transfection with pG5-Luc reporter)
T2 sequence (P51449 253-518): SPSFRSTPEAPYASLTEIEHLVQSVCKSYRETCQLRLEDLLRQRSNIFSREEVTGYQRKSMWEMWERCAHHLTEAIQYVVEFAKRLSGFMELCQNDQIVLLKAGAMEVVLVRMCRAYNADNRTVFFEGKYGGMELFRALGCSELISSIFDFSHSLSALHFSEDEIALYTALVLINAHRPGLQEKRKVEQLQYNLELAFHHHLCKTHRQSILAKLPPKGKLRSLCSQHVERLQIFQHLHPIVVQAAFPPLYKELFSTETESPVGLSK
As to the kind of experiment: Luciferase reporter gene assay of inhibitory effect against RORγ transcriptional activity (GAL4-hRORγ plasmid in CHO cells). Type of experiment: cell-based. As to conditions: read-out: LUC EC50 hRORg.

This note sets out measurements from US20160137639A1, “TRIAZOLE-ISOXAZOLE COMPOUND AND MEDICAL USE THEREOF” (JAPAN TOBACCO INC., priority 2012, published 2016).

As a reminder, the EC50 is the concentration at which the effect is half-maximal. For `Cc1ccc(NC(=O)C[C@H](CC(=O)NC(C)(C)C)c2noc([C@H]3C[C@@H](CC(C)C)C3)c2C2CC2)c(C)c1` [Example F-639], the EC50 at mouse RORγ and on human RORγ was < 3 µM throughout.

Turning to `Cc1ccc(NC(=O)C[C@H](Cc2noc(=O)[nH]2)c2noc([C@H]3C[C@@H](CC(C)C)C3)c2C2CC2)c(C)c1` [Example F-640], the EC50 at mouse RORγ and at human RORγ was < 3 µM in each case.

For `Cc1ccc(NC(=O)C[C@H](Cc2nnn[nH]2)c2noc([C@H]3C[C@@H](CC(C)C)C3)c2C2CC2)c(C)c1` [Example F-641], the EC50 at mouse RORγ and on human RORγ was < 3 µM throughout.

Regarding `Cc1ccc(NC(=O)C[C@H](CC(N)=O)c2noc([C@H]3C[C@@H](CC(C)C)C3)c2C2CC2)c(C)c1` [Example F-642], the EC50 at mouse RORγ and on human RORγ was < 3 µM in each case.

Turning to `Cc1ccc(NC(=O)C[C@H](CCc2noc(=O)[nH]2)c2noc([C@H]3C[C@@H](CC(C)C)C3)c2C2CC2)c(C)c1` [Example F-643], the EC50 at mouse RORγ and at human RORγ was < 3 µM throughout.

Consider `Cc1ccc(NC(=O)C[C@H](CCc2nnn[nH]2)c2noc([C@H]3C[C@@H](CC(C)C)C3)c2C2CC2)c(C)c1` [Example F-644, (S)-3-[4-cyclopropyl-5-(3-isobutyl-cyclobutyl)-isoxazol-3-yl]-5-(1H-tetrazole-5-yl)-valeric acid (2,4-dimethyl-phenyl)-amide], for which the EC50 on mouse RORγ and on human RORγ was < 3 µM each time.

Take `CCOC(=O)/C=C/c1c(CCC(=O)Nc2ccc(C)cc2C)noc1[C@H]1C[C@@H](CC(C)C)C1` [Example F-645]: the EC50 at mouse RORγ and on human RORγ was > 3 µM in each case.

`Cc1ccc(NC(=O)CCc2noc([C@H]3C[C@@H](CC(C)C)C3)c2/C=C/C(=O)O)c(C)c1` [Example F-646]: the EC50 on mouse RORγ and at human RORγ was > 3 µM throughout.

For the molecule `Cc1ccc(NC(=O)C[C@H](CNC(=O)CC#N)c2noc([C@H]3C[C@@H](CC(C)C)C3)c2C2CC2)c(C)c1` [Example F-647], the EC50 on mouse RORγ and on human RORγ was < 3 µM throughout.

For `Cc1ccc(NC(=O)[C@H]2CN(C(=O)CN(C)C)C[C@@H]2c2nnc([C@H]3C[C@@H](CC(C)(C)C)C3)n2C2CC2)c(C)c1` [Example F-648], the EC50 on mouse RORγ and at human RORγ was < 3 µM each time.

Regarding `CCN(CC)C(=O)CN1C[C@H](C(=O)Nc2ccc(C)cc2C)[C@@H](c2nnc([C@H]3C[C@@H](CC(C)(C)C)C3)n2C2CC2)C1` [Example F-649], the EC50 on mouse RORγ and on human RORγ was < 3 µM each time.

In the case of `CCN(CC)CC(=O)N1C[C@H](C(=O)Nc2ccc(C)cc2C)[C@@H](c2nnc([C@H]3C[C@@H](CC(C)(C)C)C3)n2C2CC2)C1` [Example F-650], the EC50 at mouse RORγ and on human RORγ was < 3 µM each time.

Consider `Cc1ccc(NC(=O)[C@H]2CN(C(=O)N3CCN(C)CC3)C[C@@H]2c2nnc([C@H]3C[C@@H](CC(C)(C)C)C3)n2C2CC2)c(C)c1` [Example F-651], for which the EC50 at mouse RORγ and on human RORγ was < 3 µM throughout.

Regarding `Cc1ccc(NC(=O)[C@H]2CN(CC(=O)N(C)C)C[C@@H]2c2nnc([C@H]3C[C@@H](CC(C)(C)C)C3)n2C2CC2)c(C)c1` [Example F-652], the EC50 at mouse RORγ and on human RORγ was < 3 µM each time.

On to `CCN(CC)C(=O)CN1C[C@H](C(=O)Nc2ccc(C)cc2C)[C@@H](c2nnc([C@H]3C[C@@H](CC(C)C)C3)n2C2CC2)C1` [Example F-653], for which the EC50 on mouse RORγ and on human RORγ was < 3 µM each time.

Regarding `CCN(CC)CC(=O)N1C[C@H](C(=O)Nc2ccc(C)cc2C)[C@@H](c2nnc([C@H]3C[C@@H](CC(C)C)C3)n2C2CC2)C1` [Example F-654], the EC50 is < 3 µM at mouse RORγ and > 3 µM on human RORγ.

As for `Cc1ccc(NC(=O)[C@H]2CN(C(=O)N3CCN(C)CC3)C[C@@H]2c2nnc([C@H]3C[C@@H](CC(C)C)C3)n2C2CC2)c(C)c1` [Example F-655], the EC50 on mouse RORγ and on human RORγ was < 3 µM each time.

For `Cc1ccc(NC(=O)[C@H]2CN(CC(=O)N(C)C)C[C@@H]2c2nnc([C@H]3C[C@@H](CC(C)C)C3)n2C2CC2)c(C)c1` [Example F-656], the EC50 at mouse RORγ and at human RORγ was < 3 µM in each case.

`Cc1ccc(NC(=O)[C@H]2CN(C(=O)CN(C)C)C[C@@H]2c2nnc([C@H]3C[C@@H](CC(C)C)C3)n2C2CC2)c(C)c1` [Example F-657]: the EC50 at mouse RORγ is < 3 µM; at human RORγ it was > 3 µM.

Regarding `Cc1ccc(NC(=O)C[C@H](CCO)c2nnc(-c3cc(CC(C)C)on3)n2C2CC2)c(C)c1` [Example F-659], the EC50 at mouse RORγ and at human RORγ was < 3 µM in each case.

As for `Cc1cc(Cl)ccc1NC(=O)C[C@H](CCO)c1nnc(-c2cc(CC(C)C)on2)n1C1CC1` [Example F-660], the 50% effective concentration (EC50) at mouse RORγ and on human RORγ was < 3 µM throughout.

For `Cc1c(F)ccc(NC(=O)C[C@H](CCO)c2nnc(-c3cc(CC(C)C)on3)n2C2CC2)c1C` [Example F-661], the EC50 at mouse RORγ and on human RORγ was < 3 µM throughout.

Regarding `Cc1c(NC(=O)C[C@H](CCO)c2nnc(-c3cc(CC(C)C)on3)n2C2CC2)ccc(F)c1F` [Example F-662], the EC50 on mouse RORγ and on human RORγ was < 3 µM in each case.

For `CCOC(=O)CCc1c(CCC(=O)Nc2ccc(C)cc2C)noc1[C@H]1C[C@@H](CC(C)C)C1` [Example F-663], the EC50 on mouse RORγ and at human RORγ was > 3 µM throughout.

In the case of `Cc1ccc(NC(=O)CCc2noc([C@H]3C[C@@H](CC(C)C)C3)c2CCC(=O)O)c(C)c1` [Example F-664], the EC50 at mouse RORγ and at human RORγ was > 3 µM each time.

For the molecule `Cc1ccc(NC(=O)CCc2noc([C@H]3C[C@@H](CC(C)C)C3)c2C2CC2)c(C)c1` [Example F-665], the EC50 on mouse RORγ and at human RORγ was < 3 µM each time.

Consider `Cc1ccc(NC(=O)C(CC(=O)O)Cc2noc([C@H]3C[C@@H](CC(C)C)C3)c2C2CC2)c(C)c1` (some centres unmarked) [Example F-666], for which the EC50 was < 3 µM at mouse RORγ and > 3 µM at human RORγ.

For the molecule `Cc1ccc(NC(=O)C[C@H](CC(=O)O)c2noc([C@H]3C[C@@H](CC(C)C)C3)c2C2CC2)cn1` [Example F-667], the EC50 on mouse RORγ is < 3 µM; on human RORγ, > 3 µM.

As for `Cc1ccc(NC(=O)[C@@H](CC(=O)O)Cc2noc([C@H]3C[C@@H](CC(C)C)C3)c2C2CC2)c(C)c1` [Example F-668], the results for the 50% effective concentration (EC50) at mouse RORγ and on human RORγ were < 3 µM and > 3 µM, respectively.

Consider `Cc1cc(NC(=O)C[C@H](CC(=O)O)c2noc([C@H]3C[C@@H](CC(C)C)C3)c2C2CC2)n(C)n1` [Example F-669], for which the values for the EC50 on mouse RORγ and at human RORγ were < 3 µM and > 3 µM, respectively.

`Cc1cc(NC(=O)C[C@H](CC(=O)O)c2noc([C@H]3C[C@@H](CC(C)C)C3)c2C2CC2)no1` [Example F-670]: the figures for the EC50 on mouse RORγ and at human RORγ were < 3 µM and > 3 µM, respectively.

For the molecule `Cc1ccc(NC(=O)[C@@H](CCC(=O)O)Cc2noc([C@H]3C[C@@H](CC(C)C)C3)c2C2CC2)c(C)c1` [Example F-671], the concentration giving a half-maximal response (EC50) on mouse RORγ and at human RORγ was < 3 µM throughout.

Regarding `Cc1ccc(NC(=O)C[C@H](CCCO)c2noc([C@H]3C[C@@H](CC(C)(C)C)C3)c2C2CC2)c(Cl)c1` [Example F-672], the EC50 on mouse RORγ and at human RORγ was < 3 µM throughout.

For `Cc1ccc(NC(=O)C[C@H](CCC(=O)O)c2noc([C@H]3C[C@@H](CC(C)(C)C)C3)c2C2CC2)c(C)n1` [Example F-673], the EC50 at mouse RORγ and at human RORγ was < 3 µM each time.

Regarding `Cc1ncc(NC(=O)C[C@H](CCC(=O)O)c2noc([C@H]3C[C@@H](CC(C)(C)C)C3)c2C2CC2)c(C)n1` [Example F-674], the EC50 on mouse RORγ and at human RORγ was < 3 µM each time.

For the molecule `Cc1cc(C)c(NC(=O)C[C@H](CCC(=O)O)c2noc([C@H]3C[C@@H](CC(C)(C)C)C3)c2C2CC2)cn1` [Example F-675], the EC50 on mouse RORγ and on human RORγ was < 3 µM each time.

`Cc1ccc(NC(=O)C[C@H](CCC(=O)O)c2cc([C@H]3C[C@@H](CC(C)(C)C)C3)on2)c(Cl)c1` [Example F-676]: the EC50 on mouse RORγ and on human RORγ was < 3 µM throughout.

In the case of `Cc1ccc(NC(=O)[C@@H](CC(=O)O)Cc2noc([C@H]3C[C@@H](CC(C)(C)C)C3)c2C2CC2)c(Cl)c1` [Example F-677], the EC50 on mouse RORγ and on human RORγ was < 3 µM in each case.

As for `Cc1noc(NC(=O)C[C@H](CCC(=O)O)c2noc([C@H]3C[C@@H](CC(C)(C)C)C3)c2C2CC2)c1C` [Example F-679], the EC50 on mouse RORγ and on human RORγ was < 3 µM in each case.

For `Cc1ccc(NC(=O)C[C@H](CCC(=O)O)c2noc([C@H]3C[C@@H](CC(C)(C)C)C3)c2C2CC2)nc1C` [Example F-680], the EC50 on mouse RORγ and at human RORγ was < 3 µM throughout.
